Assay results published in patent publication US10416163B2, “Method and treatment of recurring endometrial cancer with an inhibitor of USP14” (Regents of the University of Minnesota, priority 2016, dated 2019).
Where two headings read alike, the source gives them in different places.

Columns and labels:
ovarian cancer cells = assay: Active caspase-3 levels in ovarian cancer cells; type: cell-based; settings: increasing concentrations
[1] = tested on: cisplatin resistant ovarian cancer cell lines HEY and OVCA-3 and primary cells from patients with recurrent and resistant disease; assay: Cell viability (XTT) of chemoresistant ovarian cancer cells exposed to USP14 inhibitor; type: cell-based, human; settings: increasing concentrations, 48 hours
Method: Inhibition of USP14 selectively kills ovarian cancer cell lines resistant to cisplatin and primary ovarian cancer cells derived from patients with recurrent and chemoresistant disease. Sensitivity to inhibition of USP14 was evaluated in exponentially growing human fibroblasts, in the exponentially growing cisplatin resistant ovarian cancer cell lines HEY and OVCA-3 and in two exponentially growing primary cells derived from patient with recurrent and resistant (to carboplatin) disease. Primary cells were obtained according to a method recently described in two manuscripts.

[2] = tested on: HEC155 endometrial cancer cells; assay: Cell cycle distribution by propidium iodide flow cytometry, HEC155; type: cell-based; settings: HEC155, 300 nM, 24 hours
Method: (§1) Cell cycle status following treatment with drug or vehicle alone was determined via flow cytometry analysis. Specifically, cells were harvested at indicated time points and fixed in 70% ethanol on ice for 2 hours. Following washing with PBS, cells were stained with 0.1% (m/v) propidium iodide in PBS-T. Apoptosis was measured using antibodies against active Caspase-3 (BD Pharmingen) or Annexin V (BD Pharmingen) which were combined with propidium iodide staining (Sigma-Aldrich). For apoptosis assays, samples were fixed and stained according to manufacturer's instructions. Fluorescence was measured with a FACSCantoII flow cytometer (Becton Dickinson) and analyzed with FlowJo software.
(§2) The USP14 modulates levels of cell cycle regulatory proteins whose dysregulation is expected to affect the cell cycle. This is further supported by the findings showing a strong correlation between USP14 and Ki67 staining in clinical specimens of endometrial cancer. Thus, the hypothesis that inhibition of USP14 would result in endometrial cancer cells failing to progress through the cell cycle was tested. To this end, HEC155 and ECC1 endometrial cancer cells were incubated with the USP14 inhibitor VLX1570 over a period of 24 hours and the cell cycle status was analyzed by flow cytometry after staining with propidium iodide. […]

[3] = tested on: HEC155 endometrial cancer cells; assay: Apoptosis by flow cytometry (active caspase-3, Annexin V, propidium iodide), HEC155; type: cell-based
Method: as §1
(§3) Next, the fate of ECC1 and HEC155 endometrial cancer cells following VLX1570-induced cell cycle arrest was evaluated. Specifically, it was tested whether the reduction in cell viability following drug treatment is consistent with onset of apoptosis. The expression levels of active caspase-3 in control versus VLX1570 treated cells was measured. Importantly, caspase-3 is an active cell-death protease involved in the execution phase of apoptosis, where cells undergo morphological changes such as DNA fragmentation, chromatin condensation and apoptotic body formation.
(§4) Similarly, the fraction of cells taking up propidium iodide, a feature of both advanced apoptosis and necrosis, is elevated in […]. These findings support the hypothesis that pharmacological inhibition of USP14 triggers apoptosis in endometrial cancer cells.

[4] = tested on: HEC155 endometrial cancer cell line; assay: Cell viability assay (WST-1), HEC155; type: cell-based; settings: for IC50: HEC155, 48 hours exposure
Method: (§5) Cell viability was determined by 2,3-bis[2-methoxy-4-nitro-5-sulfophenyl]-2H-tetrazolium-5-carboxanilide inner salt assay as previously described. Briefly, cells were seeded at the concentration of 1.000 per well in 100 μL medium in 96-well plate and treated with the indicated concentrations of drugs. At the indicated time points, cells were incubated according to the manufacturer's protocol with the WST-1 labeling mixture for 2 hours. Formazan dye was quantified using a spectrophotometric plate reader to measure the absorbance at 450 nm (ELISA reader 190; Molecular Devices).
(§6) The next step was to investigate whether USP14 is a molecular target for endometrial cancer cells. To this end, the expression levels of USP14 in a panel of endometrial cancer cell lines including HEC155, EFE184 and ECC1 was first measured. These cells were chosen as they represent the most aggressive and most likely to recur endometrial cancer types. As shown in FIG. 4A (left panel), all cell lines tested expressed USP14 with HEC155 and ECC1 having the highest levels. Next. ECC1 and HEC155 endometrial cancer cells were exposed to increasing concentrations of the small-molecule inhibitor […] and the residual cell viability was measured after a period of 48 hours.
(§7) In the clinical setting, recurrent endometrial cancer is usually resistant to chemotherapy. Previous studies have reported that among endometrial cancer cell lines, HEC155 and ECC1 have the highest levels of LCAM, a marker for endometrial cancer recurrence. […] Thus, the IC50 levels for carboplatin treatment of HEC155 and ECC1 cells was measured.

[5] = tested on: COV362 ovarian cancer cells; assay: Cell viability of sensitive and carboplatin-resistant COV362; type: cell-based
Method: (§8) FIG. 11. COV362 and ES-2 carboplatin-resistant clones. Residual cell viability of sensitive and resistant COV362 and ES-2 ovarian cancer cells exposed to the indicated concentrations of carboplatin over a period of 48 hours.
(§9) FIG. 12. Carboplatin resistant COV362 and ES-2 ovarian cancer cells are sensitive to USP14 inhibition. Residual cell viability of resistant COV362 and ES-2 ovarian cancer cells exposed to the indicated concentrations of the FDA approved USP14 inhibitor VLX1570 over a period of 48 hours. The structure of VLX1570 is:
(§10) Carboplatin-resistant ovarian cancer cell lines are sensitive to pharmacological inhibition of USP14. Two ovarian cancer cell lines, COV-362 and ES-2 were exposed to carboplatin according to the method described in FIG. 9 and the resulting USP14 overexpressing clones were subjected to cell viability assay to assess the extent of chemoresistance. […] Next, the sensitivity of COV362 and ES-2 resistant clones to the FDA approved USP14 inhibitor VLX1570 was determined.

[6] = tested on: ECC1 endometrial cancer cell line; assay: Cell viability assay (WST-1), ECC1; type: cell-based; settings: for IC50: ECC1, 48 hours exposure
Method: as §5, §6, §7

[7] = tested on: ubiquitin-dependent protein degradation in HEC155 cells; assay: Western blot for accumulation of poly-ubiquitinated proteins, HEC155; type: cell-based
Method: (§11) Total cellular protein (10-20 μg) from each sample was separated by SDS-PAGE, transferred to PVDF membranes and subjected to Western blot analysis. Antibodies for Western blot analysis were obtained by the following commercial sources: anti-USP14 (Bethyl Laboratories), anti-ubiquitin (Santa Cruz Biotechnology), anti-β-actin (Sigma). Peroxidase-linked anti-mouse Immunoglobulin G and peroxidase-linked anti-rabbit Immunoglobulin G were from Amersham.
(§12) USP14 is a proteasome-associated deubiquitinating enzyme whose role is to remove ubiquitin molecules from targeted proteins prior to degradation by the 20S catalytic activities of the proteasome. […] Thus, the consequences of USP14 inhibition on ubiquitin-dependent protein degradation in endometrial cancer cells was investigated. To this end, ECC1 and HEC155 cells were exposed to 150 nM or 250 nM VLX1570, respectively, over a period of 24 hours and the effect on cellular protein ubiquitination was evaluated by Western blot analysis after 0, 2, 8 or 12 hours from drug exposure. […] Quantifications of the changes in high molecular weight ubiquitin species in each respective cell line, versus control, are given in FIGS. 5B and 5D (top panels).
(§13) Next, endometrial cancer cell lines were exposed to increasing concentrations of VLX1570 ([…] for ECC1 and HEC155, respectively) over a period of 24 hours. The effect on accumulation of poly-ubiquitinated proteins was evaluated by Western blot. […] Quantifications of the changes in high-molecular weight ubiquitin species in dose-dependent fashion are given in FIGS. 5B and 5D (bottom panels).

[8] = tested on: ubiquitin-dependent protein degradation in ECC1 cells; assay: Western blot for accumulation of poly-ubiquitinated proteins, ECC1; type: cell-based
Method: as §11, §12, §13

[9] = tested on: ES-2 ovarian cancer cells; assay: Cell viability of sensitive and carboplatin-resistant ES-2; type: cell-based
Method: as §8, §9, §10

[10] = tested on: ECC1 endometrial cancer cells; assay: Apoptosis by flow cytometry (active caspase-3, Annexin V, propidium iodide), ECC1; type: cell-based
Method: as §1, §3, §4

[11] = tested on: ECC1 endometrial cancer cells; assay: Cell cycle distribution by propidium iodide flow cytometry, ECC1; type: cell-based; settings: ECC1, 300 nM, 24 hours
Method: as §1, §2

[12] = tested on: ECC1 endometrial cancer cell line; assay: Multi-step carboplatin chemoresistance model, ECC1; type: cell-based
Excerpt: USP14 is co-expressed with ETM makers during the multi-stage process leading to chemoresistance. Acquisition of aggressive phenotype and chemoresistance is a multi-stage process whereby the subpopulation of cells surviving drug treatment give rise to cells characterized by increased in migratory behavior, proliferation rate and chemoresistance via a transition accompanied by increase in stem cell and epithelial-mesenchymal transition (EMT) markers. This model was recapitulated in ECC1 endometrial cancer cell line and the temporal USP14 expression was evaluated during this multi-step process. Specifically. ECC1 cells were exposed to two rounds of carboplatin treatment (20 μM) over the period of two weeks. The first round resulted with approx. 60% of cell death. The second round resulted with approx. 90% of cell death. Consistent with what previously shown, the surviving population was characterized by giant, polyploidy, chemoresistant cells whose numbers remained similar over the course of the following two weeks. […] Next, the expression levels of USP14 and the EMT marker vimentin were evaluated in the initial population (chemosensitive tumor) and in two of the chemoresistant clones. USP14 overexpression is temporally associated to the expression of the EMT marker vimentin.

[13] = tested on: carboplatin sensitive cancer cells; assay: Multi-step carboplatin chemoresistance model in vitro (Example 2); type: cell-based; settings: 10 μM, two rounds over two weeks
Method: Multi-step process leading to recurrence can be recapitulated in vitro and results with up-regulation of USP14. Carboplatin chemoresistance was recapitulated in vitro according to the model schematized in FIG. 9. Specifically, carboplatin sensitive cancer cells were exposed to two rounds of carboplatin treatment (10 μM) over the period of two weeks. The first round resulted with approx. 60% of cell death. The second round resulted with approx. 90% of cell death. This is consistent with the dramatic reduction in tumor burden in chemosensitive patients treated with neoadjuvant chemotherapy. […] As shown in FIG. 9 the chemotherapy surviving population was characterized by stem like giant, polyploidy, chemoresistant cells whose numbers remained similar over the course of the following two weeks. This population was the precursor of clones of cells that survived in presence of carboplatin. Strikingly, when the expression levels of USP14 and the […] marker vimentin were evaluated in the initial population (chemosensitive tumor) and in two of the chemoresistant clones isolated. USP14 overexpression is temporally associated to over-expression of the […] marker, vimentin.

[14] = read-out: IC50, inhibition of cell viability
[15] = ECC1, 20 μM, two rounds over two weeks
[16] = read-out: IC50 for carboplatin, cell viability

O=C1/C(=C/c2ccc([N+](=O)[O-])cc2)CNC/C1=C\c1ccc([N+](=O)[O-])cc1 [RA-9, (3E, 5E)-3,5-bis(nitrobenzylidene)piperidin-4-one]
Caspase-3 activation (ovarian cancer cells): activation of Caspase-3 | effect on cell viability of chemoresistant ovarian cancer cells [1]: killed chemoresistant ovarian cancer cells

C=CC(=O)N1CC/C(=C\c2ccc(F)c([N+](=O)[O-])c2)C(=O)/C(=C/c2ccc(F)c([N+](=O)[O-])c2)C1 [VLX1570]
percentage of cells in the G2/M phase versus controls [2]: increase in the percentage of cells in the G2/M phase | Annexin V staining cells ([3]; HEC155, 300 nM, 24 hours): increase of Annexin V staining cells | fraction of cells taking up propidium iodide ([3]; HEC155, 300 nM, 24 hours): elevated | levels of active caspase-3 ([3]; HEC155, 24 hours, versus mock): increased levels of active caspase-3 | anti-proliferative concentration, times lower than that required for carboplatin ([4]; HEC155): 500 times | IC50 [4, 14]: 0.182 µM | killing concentration, fold lower than the one required with carboplatin ([5]; carboplatin-resistant COV362): approx. 10 fold | IC50 ([5]; carboplatin-resistant COV362 clones, 48 hours, read-out: IC50, inhibition of cell viability): 8.76 µM | anti-proliferative concentration, times lower than that required for carboplatin ([6]; ECC1): 800 times | IC50 [6, 14]: 0.118 µM | inhibition of ubiquitin-dependent protein degradation (dose course) ([7]; HEC155, 0-250 μM, 24 hours): dose-dependent inhibition of ubiquitin-dependent protein degradation | start of accumulation of poly-ubiquitinated proteins after drug exposure ([7]; HEC155, 250 nM): two | accumulation of poly-ubiquitinated proteins (time course) ([7]; HEC155, 250 nM, 0, 2, 8 or 12 hours): dose-dependent accumulation of poly-ubiquitinated proteins | inhibition of ubiquitin-dependent protein degradation (dose course) ([8]; ECC1, 0-150 μM, 24 hours): dose-dependent inhibition of ubiquitin-dependent protein degradation | start of accumulation of poly-ubiquitinated proteins after drug exposure ([8]; ECC1, 150 nM): two | accumulation of poly-ubiquitinated proteins (time course) ([8]; ECC1, 150 nM, 0, 2, 8 or 12 hours): dose-dependent accumulation of poly-ubiquitinated proteins | killing concentration, fold lower than the one required with carboplatin ([9]; carboplatin-resistant ES-2): approx. 10 fold | IC50 ([9]; carboplatin-resistant ES-2 clones, 48 hours, read-out: IC50, inhibition of cell viability): 7.11 µM | Annexin V staining cells ([10]; ECC1, 300 nM, 24 hours): increase of Annexin V staining cells | fraction of cells taking up propidium iodide ([10]; ECC1, 300 nM, 24 hours): elevated | levels of active caspase-3 ([10]; ECC1, 24 hours, versus mock): increased levels of active caspase-3 | percentage of cells in the G2/M phase, treated versus control [11]: nearly double

N.N.O=C([O-])C1(C(=O)[O-])CCC1.[Pt+2] [carboplatin]
cell death, first round of carboplatin treatment [12, 15]: approx. 60% | cell death, second round of carboplatin treatment [12, 15]: approx. 90% | IC50 of chemoresistant clones as compared to the initial population ([12]; ECC1 chemoresistant clones): > 3 fold | IC50 [4, 16]: 77.5 µM | decrease in carboplatin sensitivity, resistant versus sensitive cells ([5]; COV-362, 48 hours exposure): > 4 fold | IC50 [6, 16]: 97.6 µM | decrease in carboplatin sensitivity, resistant versus sensitive cells ([9]; ES-2, 48 hours exposure): > 3 fold | cell death, first round of carboplatin treatment [13]: approx. 60% | cell death, second round of carboplatin treatment [13]: approx. 90%
